Data reported in patent publication US8871754B2, “Compounds and compositions for the treatment of parasitic diseases” (IRM LLC, priority 2012, dated 2014).

Columns and labels:
[1] = test system: P. falciparum (NF54 or 3D7 strain) in infected human erythrocytes; assay: Assay for P. falciparum proliferation in infected human blood cells (SYBR Green); format: cell-based; conditions: Plasmodium falciparum, Erythrocyte; NF54 or 3D7 strain, 72 hours, SYBR Green fluorescence; read-out: EC50 (nM), inhibitory efficacy in delaying P. falciparum proliferation in infected human blood cells
How it was run: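 NF54 or 3D7 parasites in O+ human erythrocytes (final 2.5% hematocrit, 0.3% parasitemia) exposed to compound for 72 h at 37° C. under 3% O2. Cells then lysed overnight with SYBR Green I, and fluorescence read at excitation 425 nm / emission 530 nm to give EC50.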

[2] = test system: P. yoelii sporozoites in HepG2-A16-CD81EGFP cells; assay: P. yoelii sporozoite invasion assay (proliferation of parasite in infected liver cells, immunofluorescence); format: cell-based; conditions: Plasmodium yoelii, 48 hours, parasite area by immunofluorescence, read-out: EC50 (nM), inhibitory efficacy by the P. yoelii sporozoite invasion assay
Text: Assay for Profiferation of Parasite in Infected Liver Cells
Compounds of the invention can be assayed to measure their capacity to inhibit proliferation of parasites in liver cells. The proliferation is quantified by determine the number of infected cells by immunofluorescence.
Due to the difficulty of successfully infecting immortalized human liver cell lines with the human malaria sporozoites (liver-stage parasite), rodent malaria sporozoites from Plasmodium yoelii (17XNL) and P. berghei (ANKA) are the preferred surrogate. Sporozoites are obtained from Anopheles stephensi mosquitoes supplied by the New York University Insectary, which ships the malaria-infected mosquitoes 10-13 days following the ingestion of an infective blood meal.
A transgenic HepG2 cell line expressing the tetraspanin CD81 receptor (HepG2-A16-CD81^EGFP) is used to increase the infectivity rate of rodent-malaria sporozoites into human cells. HepG2-A16-CD81^EGFP cells are stably transformed to express a GFP-CD81 fusion protein. A continuous in vitro culture of this line was maintained at 37° C. in 4% CO2 in complete media (CM) which contains: DMEM (Invitrogen, Carlsbad, USA) supplemented with 10% FCS, 0.29 mg/ml glutamine, 100 units penicillin and 100 μg/ml streptomycin (SigmaAldrich, USA).
P. yoelii Sporozoite Invasion Assay
Twenty to twenty-six hours prior to sporozoite infection, 7.5×10^3 HepG2-A16-CD81^EGFP cells are seeded into 384-well plates (Aurora 384 IQ-EB black plates with clear bottoms; 50 μl of 1.5×10^5 cells/ml in CM). These plates are incubated at 37° C. with 4% CO2 overnight. Two hours prior to infection, 50 nl of compound dissolved in DMSO (0.1% final DMSO concentration per well) were transferred with a PinTool (GNF Systems) into the assay plates (10 μM final concentration). A 1:3 serial dilution of atovaquone (10 μM at the highest final concentration) and wells treated only with DMSO were used as positive and negative controls, respectively.
Freshly dissected salivary glands from infected mosquitoes were homogenized in a glass tissue grinder, filtered twice through Nylon cell strainers (40 μm pore size, BD Falcon) and counted using a hemocytometer. The assay plate with HepG2-A16-CD81^EGFP cells and compound were then infected with 8×10^3 sporozoitesper well and the plates are subjected to a centrifugal force of 650×g to pellet the sporozoites onto the liver cell monolayer. The assay plate is incubated at 37° C. for 2 hours to permit sporozoite invasion, then the media is aspirated from the media plate, and replaced with 50 μl CM (containing a 5× concentration of penicillin/streptomycin; 500 units penicillin and 0.5 mg streptomycin per ml) per well. 50 nl of compound is re-introduced by PinTool and the assay plate incubated for 48 hours at 37° C. before quantification of infected cells by immunofluorescence.
Atovaquone and uninfected wells were used as controls on each plate. Two replicate plates are tested for each assay.
Immunofluorescence Quantification of Exo-Erythrocytic Forms (EEFs)
After fixing the cells by addition of 12.5 μl of 20% solution of paraformaldehyde (EMS, Hatfield, USA) to each assay well (4% final formaldehyde concentration), membranes were permeabilized with 0.5% Triton-X-100 (Thermo Fisher Scientific) and EEFs were stained using a mouse polyclonal serum raised against the Plasmodium yoelii heat shock protein 70 (PyHSP70), a DyLight 649 goat anti-mouse IgG, Fc(gamma) fragment specific secondary antibody (Jackson Immuno Research, Cat#115-495-071) and the Hoechst 33342 nucleic acid dye (Invitrogen, Carlsbad, USA). Stained EEFs were then quantified using the Opera Confocal High Content Screening System (Perkin Elmer, Waltham, USA). Images were collected using a 20× objective lens (20×/0.45 NA, LWD Plan Fluor, Olympus) at a binning of 2, using a 365 nm Xeon arc lamp illumination to detect the Hoechst-labeled nuclei and 635 nm laser line to excite DyLight649-labeled parasites. […]

Structure (SMILES)	EC50 [1] [nM]	EC50 [2] [nM]
CN(C(=O)c1ccn2ncc(-c3ccc(C(F)(F)F)cc3)c2c1)c1ccc(C#N)cc1 [Example 1, N-(4-cyanophenyl)-N-methyl-3-(4-(trifluoromethyl)phenyl)pyrazolo[1,5-a]pyridine-5-carboxamide]	8	7.3
CN(C(=O)c1ccn2ncc(-c3ccc(C(F)(F)F)cc3)c2c1)c1ccc(C#N)cn1 [Example 13, N-(5-cyanopyridin-2-yl)-N-methyl-3-(4-(trifluoromethyl)phenyl)pyrazolo[1,5-a]pyridine-5-carboxamide]	8	17.9
CN(C(=O)c1ccn2ncc(-c3ccc(C(N)=O)cc3)c2c1)c1ccc(C#N)cc1 [Example 19, 3-(4-carbamoylphenyl)-N-(4-cyanophenyl)-N-methylpyrazolo[1,5-a]pyridine-5-carboxamide]	1	4.3
CN(C(=O)c1ccn2ncc(-c3ccc(C(N)=O)cc3)c2c1)c1ccc(F)cc1 [Example 20, 3-(4-carbamoylphenyl)-N-(4-fluorophenyl)-N-methylpyrazolo[1,5-a]pyridine-5-carboxamide]	9	13.5
CN(C(=O)c1ccn2ncc(-c3ccc(C(F)(F)F)cn3)c2c1)c1ccc(C#N)cn1 [Example 25, N-(5-cyanopyridin-2-yl)-N-methyl-3-(5-(trifluoromethyl)109yridine-2-yl)pyrazolo[1,5-a]pyridine-5-carboxamide]	7	229
CN(C(=O)c1ccn2ncc(-c3ccc(C(N)=O)cn3)c2c1)c1ccc(C#N)cc1 [Example 27, 3-(5-carbamoylpyridin-2-yl)-N-(4-cyanophenyl)-N-methylpyrazolo[1,5-a]pyridine-5-carboxamide]	10	201
CN(C(=O)c1ccc(C#N)cc1)c1ccn2ncc(-c3ccc(C(F)(F)F)cc3)c2c1 [Example 28, 4-cyano-N-methyl-N-(3-(4-(trifluoromethyl)phenyl)pyrazolo[1,5-a]pyridine-5-yl)benzamide]	7	23.2
CN(C(=O)c1ccn2ncc(-c3ccc(C(N)=O)cc3)c2c1)c1ccc(C#N)cn1 [Example 32, 3-(4-carbamoylphenyl)-N-(5-cyanopyridin-2-yl)-N-methylpyrazolo[1,5-a]pyridine-5-carboxamide]	1	8
CN(C(=O)c1ccn2ncc(-c3ccc(C(F)(F)F)cc3)c2c1)c1ccc(S(C)(=O)=O)cn1 [Example 34, N-methyl-N-(5-(methylsulfonyl)114yridine-2-yl)-3-(4-(trifluoromethyl)phenyl)pyrazolo[1,5-a]pyridine-5-carboxamide]	22	53.2
CN(C(=O)c1ccn2ncc(-c3cnc4[nH]ccc4c3)c2c1)c1ccc(C#N)cc1 [Example 40, N-(4-cyanophenyl)-N-methyl-3-(1H-pyrrolo[2,3-b]pyridin-5-yl)pyrazolo[1,5-a]pyridine-5-carboxamide]	1	63.1
CN(C(=O)c1ccn2ncc(-c3ccc(N)nc3)c2c1)c1ccc(C#N)cc1 [Example 41, 3-(6-aminopyridin-3-yl)-N-(4-cyanophenyl)-N-methylpyrazolo[1,5-a]pyridine-5-carboxamide]	2	14.3
CN(C(=O)c1ccn2ncc(-c3ccc(N)nc3)c2c1)c1ccc(C#N)cn1 [Example 54, 3-(6-aminopyridin-3-yl)-N-(5-cyanopyridin-2-yl)-N-methylpyrazolo[1,5-a]pyridine-5-carboxamide]	9	79
CNC(=O)c1ccc(-c2cnn3ccc(C(=O)N(C)c4ccc(C#N)cc4)cc23)cc1 [Example 67, N-(4-cyanophenyl)-N-methyl-3-(4-(methylcarbamoyl)phenyl)pyrazolo[1,5-a]pyridine-5-carboxamide]	5	4.6
CNC(=O)c1ccc(-c2cnn3ccc(C(=O)N(C)c4ccc(C#N)cn4)cc23)cc1 [Example 75, N-(5-cyanopyridin-2-yl)-N-methyl-3-(4-(methylcarbamoyl)phenyl)pyrazolo[1,5-a]pyridine-5-carboxamide]	4	2.25
